What was measured:
[1] = tested on: cell model in vitro; details: cited from earlier work
[2] = tested on: Hela cells; test: Annexin V/7-AAD staining, apoptosis in Hela cells; format: cell-based, human; details: 48 hr, EGCG 50 mcg/ml, Fol 900 nM, B12 1000 nM, Hyal 10 mcg/ml, FIG. 1
Description: The combined action of epigallocatechin gallate (EGCG) and at least one the following other agents: folic acid, vitamin B12, hyaluronic acid, in respect to the single substance, has been tested in vitro in immortalized cervical cancer cell line (HeLa).
The cells were seeded in […] flasks in low glucose DMEM, to which had been added FBS (Fetal Bovine Serum) 10%, L-Glu (L-glutamine) 1%, Pen/Strep (penicillin/streptomycin) 1%. The cells were kept in an incubator at a temperature of 37° C., 5% carbon dioxide and 95% humidity and maintained in culture, as described above, until they reached 50% confluency. On the day of the experiment the cells were treated as follows: • 1. […]
Apoptosis (cell death) was evaluated after 48 hours of treatment using the Annexin V kit. The expression of onco-suppressor genes (p53 and/or pRB) and/or viral E6 and/or E7 genes was evaluated after 48 hours of treatment through use of real time PCR. […]
Hela cells were cultured at confluence into 25 cm^2 flasks (Falcon, Becton Dickinson Labware, Franklin Lakes, NJ, USA) in complete medium. […] After 48 hr of treatment, cell status was assessed through use of the FITC Annexin V Apoptosis Detection Kit I according to the instructions of the manufacturer (BD Pharmingen™). […]

[3] = tested on: vaginal atrophy; details: 12 post-menopausal women, 3-month treatment; cited from earlier work
[4] = tested on: human cervical lesions; details: EGCG tablets (200 mg), 8-12 weeks, cited from earlier work
[5] = tested on: epithelial cervical cell line infected with high-risk HPV (TLC1 and cervical cancer lines such as Hela and Me180); details: dose-dependent manner; cited from earlier work
[6] = tested on: p53 protein; details: cited from earlier work
[7] = tested on: viral protein E7; details: cited from earlier work
[8] = cytology, colposcopy, histology, HPV DNA test

hyaluronic acid
process of wound healing in comparison with the control [1]: significantly accelerates the process of wound healing | apoptosis (cell death) compared to control [2]: significantly increased apoptosis | mucous membrane [3]: restores the mucous membrane | symptoms related to vaginal atrophy (itching, burning, and dyspareunia) [3]: dramatically reducing symptoms

(−)-epigallocatechin gallate [EGCG]
treated women with improvement of general clinical status ([4]; 88 women): 60% | women with moderate lesions responding positively to the treatment [4, 8]: 100% | women with serious lesions responding positively to the treatment [4, 8]: 71% | apoptosis (cell death) compared to control [2]: no differences in apoptosis levels | apoptosis, i.e., cell death [5]: promotes apoptosis | cellular growth [5]: inhibits cellular growth | level of p53 protein expression [6]: increases the level of p53 protein expression | level of viral protein E7 expression [7]: reduces that of the viral protein E7

Reference: patent US20260191819A1, “COMPOSITION FOR THE TREATMENT OF THE HUMAN PAPILLOMAVIRUS INFECTION (HPV)” (LO.LI. PHARMA S.R.L., priority 2022, published 2026)
